Measurements from PubChem BioAssay AID2060484 (Molecular Pharmacology Branch, DTP, NCI, 2025).

Tested on: SUM149PT spheroids with HUVEC/MSC, viability
Experiment: Anticancer human tumor SUM149PT cell line growth inhibition [GQUAD];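 also: spheroids exposed to drugs for seven days before readout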;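 as to viability, T/C: percent viability relative to DMSO vehicle control taken as 100%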
Conditions: for IC50: curve of first compound; for viability, T/C: stronger effect = lower value
Summary of the method: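 Viability of tumor cells grown as complex spheroids with endothelial and stromal cells, exposed to drug combinations. Top concentration at or near clinical Cmax (else 10 microM), diluted in half-log increments.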

[1] = second compound 0.0316 µM, first compound 0.0316 µM
[2] = second compound 0.0316 µM, first compound 0.1 µM
[3] = second compound 0.0316 µM, first compound 0.316 µM
[4] = second compound 0.0316 µM, first compound 1 µM
[5] = second compound 0.0316 µM, first compound 3.16 µM
[6] = second compound 0.0316 µM, first compound 10 µM
[7] = second compound 0.1 µM, first compound 0.0316 µM
[8] = second compound 0.1 µM, first compound 0.1 µM
[9] = second compound 0.1 µM, first compound 0.316 µM
[10] = second compound 0.1 µM, first compound 1 µM
[11] = second compound 0.1 µM, first compound 3.16 µM
[12] = second compound 0.1 µM, first compound 10 µM
[13] = second compound 0.316 µM, first compound 0.0316 µM
[14] = second compound 0.316 µM, first compound 0.1 µM
[15] = second compound 0.316 µM, first compound 0.316 µM
[16] = second compound 0.316 µM, first compound 1 µM
[17] = second compound 0.316 µM, first compound 3.16 µM
[18] = second compound 0.316 µM, first compound 10 µM
[19] = second compound 1 µM, first compound 0.0316 µM
[20] = second compound 1 µM, first compound 0.1 µM
[21] = second compound 1 µM, first compound 0.316 µM
[22] = second compound 1 µM, first compound 1 µM
[23] = second compound 1 µM, first compound 3.16 µM
[24] = second compound 1 µM, first compound 10 µM
[25] = second compound 3.16 µM, first compound 0.0316 µM
[26] = second compound 3.16 µM, first compound 0.1 µM
[27] = second compound 3.16 µM, first compound 0.316 µM
[28] = second compound 3.16 µM, first compound 1 µM
[29] = second compound 3.16 µM, first compound 3.16 µM
[30] = second compound 3.16 µM, first compound 10 µM
[31] = second compound 10 µM, first compound 0.0316 µM
[32] = second compound 10 µM, first compound 0.1 µM
[33] = second compound 10 µM, first compound 0.316 µM
[34] = second compound 10 µM, first compound 1 µM
[35] = second compound 10 µM, first compound 3.16 µM
[36] = second compound 10 µM, first compound 10 µM

COc1cc(C2c3cc4c(cc3C(OC3OC5COC(C)OC5C(O)C3O)C3COC(=O)C23)OCO4)cc(OC)c1O (centres undefined) + Cc1[nH]c2ccc(F)cc2c1-c1nc2c3cccnc3c3ncccc3c2[nH]1
IC50 (second compound 0.0316 µM): 875 nM | IC50 (second compound 0.1 µM): 554 nM | IC50 (second compound 0.316 µM): 784 nM | IC50 (second compound 1 µM): 830 nM | IC50 (second compound 3.16 µM): 807 nM | IC50 (second compound 10 µM): 607 nM | viability, T/C [1]: 102% | viability, T/C [2]: 86.1% | viability, T/C [3]: 56.3% | viability, T/C [4]: 49.9% | viability, T/C [5]: 38.5% | viability, T/C [6]: 18.4% | viability, T/C [7]: 105% | viability, T/C [8]: 77.7% | viability, T/C [9]: 50.7% | viability, T/C [10]: 47.1% | viability, T/C [11]: 36.8% | viability, T/C [12]: 18.5% | viability, T/C [13]: 93.2% | viability, T/C [14]: 82.3% | viability, T/C [15]: 54.4% | viability, T/C [16]: 46.9% | viability, T/C [17]: 38.2% | viability, T/C [18]: 15.4% | viability, T/C [19]: 97.6% | viability, T/C [20]: 84.4% | viability, T/C [21]: 51.3% | viability, T/C [22]: 54% | viability, T/C [23]: 36.5% | viability, T/C [24]: 13.5% | viability, T/C [25]: 88.2% | viability, T/C [26]: 77.3% | viability, T/C [27]: 58.2% | viability, T/C [28]: 49.3% | viability, T/C [29]: 33.3% | viability, T/C [30]: 12.9% | viability, T/C [31]: 81.9% | viability, T/C [32]: 74.7% | viability, T/C [33]: 48.2% | viability, T/C [34]: 49.4% | viability, T/C [35]: 33.5% | viability, T/C [36]: 14.3%

C=CCn1c(=O)c2cnc(Nc3ccc(N4CCN(C)CC4)cc3)nc2n1-c1cccc(C(C)(C)O)n1 + Cc1cnc(CNC(=O)c2c(=O)c3ccc(N4CCCN(C)CC4)nc3n3c2sc2ccccc23)cn1
IC50 (second compound 0.0316 µM): 68.6 nM | IC50 (second compound 0.1 µM): < 31.6 nM | IC50 (second compound 0.316 µM): < 31.6 nM | IC50 (second compound 1 µM): < 31.6 nM | IC50 (second compound 3.16 µM): < 31.6 nM | IC50 (second compound 10 µM): < 31.6 nM | viability, T/C [1]: 74.3% | viability, T/C [2]: 37% | viability, T/C [3]: 22.9% | viability, T/C [4]: 14.2% | viability, T/C [5]: 9.59% | viability, T/C [6]: 8.42% | viability, T/C [7]: 42.7% | viability, T/C [8]: 34.8% | viability, T/C [9]: 18.6% | viability, T/C [10]: 16.3% | viability, T/C [11]: 9.24% | viability, T/C [12]: 8.01% | viability, T/C [13]: 45.9% | viability, T/C [14]: 32.1% | viability, T/C [15]: 21.3% | viability, T/C [16]: 16.5% | viability, T/C [17]: 11.3% | viability, T/C [18]: 8.57% | viability, T/C [19]: 34.5% | viability, T/C [20]: 25.6% | viability, T/C [21]: 20.6% | viability, T/C [22]: 17.7% | viability, T/C [23]: 13.7% | viability, T/C [24]: 11.5% | viability, T/C [25]: 32.9% | viability, T/C [26]: 26.3% | viability, T/C [27]: 20.3% | viability, T/C [28]: 16.7% | viability, T/C [29]: 12.7% | viability, T/C [30]: 10.6% | viability, T/C [31]: 0.17% | viability, T/C [32]: 1.7% | viability, T/C [33]: 0.84% | viability, T/C [34]: 1.14% | viability, T/C [35]: 0.21% | viability, T/C [36]: 2.8%
